Reference: patent US9499565B2 (BEIJING XINTIANYU TECHNOLOGY DEVELOPMENT CO., LTD., priority 2012, dated 2016)

Assay: Long-period stability test of powder injections
Type: physicochemical
Details: placed at room temperature for 28 months
Protocol: All contents and purities in the present invention are determined using high performance liquid chromatography (HPLC), and chromatography conditions are: filler: octadecylsilane chemically bonded silica; mobile phase: 0.005 mol/L tetrabutyl ammonium hydroxide-acetonitrile (70:30) with pH of 5.0 adjusted by acetic acid; flow rate: 1.5 mL per minute; detection wavelength: 230 nm. The number of theoretical plates should not be less than 3500, as calculated according to sulbactam peak, the separation degree of […] peak and sulbactam peak should meet the requirements, and before official HPLC determination, the precision, accuracy, linearity and range of each specific to-be-quantified substance are also required to be subjected to methodology validation.

Substance: cocrystal of piperacillin sodium and sulbactam sodium [cocrystal A]
- content of piperacillin sodium: higher than 96.5%
- content of sulbactam sodium: higher than 96.5%
- total content of related substances: ≤ 2%
